Laboratory results as given in patent US11744273B2, “Sweetness enhancing volatile compositions and methods of increasing perceived sweetness of a comestible” (University of Florida Research Foundation, Inc., priority 2016, dated 2023).

What was measured:
Type in all cases: in vivo, human
sweetness = experiment: Orange juice; partial least squares regression of volatiles against sweetness independent of total sugar (Table 9)
Experimental: Volatile content of orange juice was assessed and analyzed similar to as described above for tomato, strawberry, and blueberry, described above. The process for obtaining volatile samples from orange juice was slightly different than for tomatoes, strawberries and blueberries. […] Briefly, instead of collecting volatiles at room temperature from a fruit mash in headspace of a closed area, the volatiles were elicited by heating the juice to collect volatiles.

flavor intensity = experiment: Tomato taste panel; association of compounds with tomato flavor intensity; details: for association with flavor intensity: univariate models
Experimental: (§1) Fully ripe fruit were harvested, and used for taste panels. A random subset of fruit was used for biochemical analysis. Three biological replicates, each consisting of 2-20 fruit (depending on fruit size), were assayed for each variety. […] Panelists were between the ages of 18 and 78 with a median age of 22. […] An average of 85 (range of 66-95) of these panelists evaluated between 4-6 varieties in a session. All panelists went through a training session to familiarize them with the scaling and procedures. Tomatoes were sliced into wedges (or in halves for grape/cherry types) and each panelist was given two pieces for evaluation. Panelists took a bite of each sample, chewed and swallowed it, and rated overall liking and liking for texture. They then rated the perceived intensities of sweetness, sourness, saltiness, umami sensation, bitterness and overall tomato flavor. They were free to take as many bites as necessary to complete the assessments. They were instructed to take a bite of an unsalted cracker and a sip of water between samples. Samples were presented to the panelists in a randomized order. Hedonic ratings used the hedonic gLMS. This scale assesses the liking for tomatoes in the context of all pleasure/displeasure experiences: 0=neutral, −100=strongest disliking of any kind experienced, and +100=strongest liking of any kind experienced. Sensory intensity ratings used the gLMS (7,8,19). This scale assesses taste and flavor sensations in the context of all sensory experience (7): 0=no sensation, 100=strongest sensation of any kind experienced. Both scales were devised to provide valid comparisons across subjects.
(§2) The 68 chemical compounds measured in this experiment were initially divided into six groups based upon biochemical properties: sugars, branched chain amino acids, lipids, carotenoids, phenolics, and acids. A small number of compounds for which biosynthetic pathways are not established were assigned to one of the six classes based upon their correlations with other classified compounds. All pairwise correlations among the set of 68 compounds were calculated. Correlation coefficients were sorted using Modulated Modularity Clustering (MMC) (9) as a visual aid for identifying compounds that are closely related in this sample. Biochemical groups were examined for compounds within the group that were highly correlated and compounds that were upstream in the relevant metabolic pathways were preferentially selected.
(§3) All analyses were performed in SAS v 9.2.
Due to the large number of chemicals potentially influencing liking, a multivariate analysis of the data was performed. The attributes were initially partitioned into six groups based upon chemical properties and biosynthetic pathways: sugars, branched chain amino acids, fatty acids, carotenoids, phenolics, and acids. […] Groups of structurally related chemicals with known metabolic links were examined for compounds within each module that were highly colinear and compounds that were upstream in relevant metabolic pathways were preferentially selected.

[1] = system: perceived sweetness intensity; experiment: Strawberry consumer panel; revised partial least squares regression against sweetness intensity (Table 6)
Experimental: (§4) All consumer panels were approved by the University of Florida Institutional Review Board. […] Ages of panelist ranged from 18 to 71, with a median age of 24. Panelists self-classified themselves as 98 White or Caucasian, 11 Black or African-American, 1 Native American, Alaska Native or Aleutian, 41 Asian/Pacific Islander, and 15 Other. […] Fresh, fully-ripe strawberry fruit was removed from overnight 4° C. dark storage and allowed to warm to room temperature prior to sensory analysis. Each panelist was given one to two whole strawberries for evaluation, depending on cultivar availability. Panelist took a bite of each sample, chewed, and swallowed it. Ratings for overall liking and liking for texture were scaled on hedonic general labeled magnitude scale (gLMS) in the context of all pleasure/displeasure experiences. […] Scales were employed to mediate valid comparisons across subjects and sessions.
For the second analysis, partial least squares regression analysis was used to identify more correlations to sweetness independent of sugars.

perceived sweetness = experiment: Tomato taste panel; initial multiple regression of volatiles against perceived sweetness (Table 3); details: for association with sweetness after accounting for fructose / association with sweetness: tomato; for association with sweetness: univariate models
Experimental: as §1, §2, §3
In conducting the multiple regression analysis on the tomato data set, the independent variables were the sugar content (glucose+fructose), and the flavor (indicated by the retronasal perception of volatiles), while the dependent variable was the perceived sweetness.

[2] = system: perceived sweetness intensity; experiment: Strawberry consumer panel; initial multiple regression of volatiles against perceived sweetness intensity independent of glucose, fructose or sucrose (Table 5); details: for FRUCTOSE t RATIO / GLUCOSE t RATIO / SUCROSE t RATIO: standard least squares; for FRUCTOSE t RATIO: sweetness intensity independent of fructose; for GLUCOSE t RATIO: sweetness intensity independent of glucose; for SUCROSE t RATIO: sweetness intensity independent of sucrose; for relation to sweetness intensity independent of sugars: initial step-wise multiple regression
Experimental: Step-wise multiple regressions of all volatile compounds against perceived intensity of sweetness is performed independent of either glucose, fructose, or sucrose concentration, separately (Table 5).
At least 100 grams or seven berries of each sample were removed from 4° C. dark overnight storage prior to volatile collection. Samples were homogenized in a blender prior to splitting into three 15 gram replicates for immediate capturing of volatile emission and remainder of sample frozen in N2 (I) and stored at −80° C. for later sugar and acid quantification.
Oven temperatures programmed from 40° C. (0.5 min hold) at 5° C. min^−1 to 250° C. (4 min hold). Signals captured with a flame ionization detector (FID) at 280° C. Peaks from FID signal were integrated manually with Chemstation B.04.01 software (Agilent Technologies, Santa Clara, Calif.). Volatile emission (ng gFW^−1 h^−1) calculated based on individual peak area relative to sample elution standard peak area.
as §4
For the first analysis, individual volatile compound concentrations were regressed using the “enter” method in SPSS Statistics (IBM Corp, Armonk, N.Y., USA).

[3] = strawberry volatile concentration regressed against perceived sweetness intensity independent of fructose, partial least squares regression
[4] = strawberry volatile concentration regressed against perceived sweetness intensity independent of glucose, partial least squares regression
[5] = strawberry volatile concentration regressed against perceived sweetness intensity independent of sucrose, partial least squares regression

C=C(C)[C@@H]1CC=C(C)[C@@H](O)C1 (relative stereo) [carveol, trans]
Total Sugar t Ratio (sweetness): 2.542

C=CC(=O)CCCCC [1-octen-3-one]
association with flavor intensity after accounting for fructose (flavor intensity): significant after accounting for fructose
association with flavor intensity (flavor intensity): associated with flavor intensity

CCCCCC=CC=O [2-Octenal]
t Ratio (Fructose) [1, 3]: −0.171
t Ratio (Glucose) [1, 4]: 0.292
t Ratio (Sucrose) [1, 5]: 2.052

CCC(C)C=O (centres unmarked) [2-methylbuteraldehyde, 2-methylbutanal]
association with sweetness after accounting for fructose (perceived sweetness): significant after accounting for fructose
association with sweetness (perceived sweetness): showed evidence for association with sweetness
association with flavor intensity after accounting for fructose (flavor intensity): significant after accounting for fructose
association with flavor intensity (flavor intensity): associated with flavor intensity

CC(C)CCO [3-methyl-1-butanol]
association with sweetness after accounting for fructose (perceived sweetness): significant after accounting for fructose
association with sweetness (perceived sweetness): showed evidence for association with sweetness
association with flavor intensity after accounting for fructose (flavor intensity): significant after accounting for fructose
association with flavor intensity (flavor intensity): associated with flavor intensity

CC1C=CC2C(C1)C2(C)C (centres unmarked) [4-carene]
association with sweetness (perceived sweetness): showed evidence for association with sweetness

CCCCCCCCOC(=O)CC(C)C [7786-58-5]
FRUCTOSE t RATIO [2]: 0.362
GLUCOSE t RATIO [2]: 0.227
SUCROSE t RATIO [2]: 2.027

CCCCCCCCCOC(=O)C(C)C [10522-34-6]
FRUCTOSE t RATIO [2]: 0.536
GLUCOSE t RATIO [2]: 0.288
SUCROSE t RATIO [2]: 2.049

C=C(C)C1CC=C(COC(C)=O)CC1 (centres unmarked) [15111-96-3]
FRUCTOSE t RATIO [2]: 0.23
GLUCOSE t RATIO [2]: 0.192
SUCROSE t RATIO [2]: 0.927

CCCCC/C=C\C=O [20664-46-4]
FRUCTOSE t RATIO [2]: −0.17
GLUCOSE t RATIO [2]: −0.395
SUCROSE t RATIO [2]: 1.383

CCC(O)C(=O)OC (centres unmarked) [29674-47-3]
FRUCTOSE t RATIO [2]: 1.339
GLUCOSE t RATIO [2]: 1.362
SUCROSE t RATIO [2]: 0.035

CCCCCCCCOC(=O)C(C)CC (centres unmarked) [29811-50-5]
FRUCTOSE t RATIO [2]: 0.016
GLUCOSE t RATIO [2]: −0.098
SUCROSE t RATIO [2]: 0.358

C=CC(C)(O)CC/C=C(\C)CCC=C(C)C (centres unmarked) [40716-66-3]
FRUCTOSE t RATIO [2]: 1.521
GLUCOSE t RATIO [2]: 1.202
SUCROSE t RATIO [2]: 1

CC=C(C)C(=O)OCC [55514-48-2]
FRUCTOSE t RATIO [2]: −0.644
GLUCOSE t RATIO [2]: −0.675
SUCROSE t RATIO [2]: −0.889

CCCC(=O)OC(C)CCC (centres unmarked) [60415-61-4, 2-pentanyl butyrate]
relation to sweetness intensity independent of sugars [2]: enhance sweetness intensity

C=C[C@]1(C)CC[C@H](C(C)(C)O)O1 [(Z)-Linalool oxide]
t Ratio (Fructose) [1, 3]: 1.868
t Ratio (Glucose) [1, 4]: 1.561
t Ratio (Sucrose) [1, 5]: 1.954

C/C=C(C)/C=C/C=C(C)C [E,E-alloocimene]
Total Sugar t Ratio (sweetness): 3.337

C=C(C)[C@H]1C=C[C@](C)(O)CC1 [E-p-mentha-2,8-dien-1-ol]
Total Sugar t Ratio (sweetness): 1.258

C=C(C)[C@@H]1CCC2=CCC[C@H](C)[C@@]2(C)C1 [Eremophilene]
Total Sugar t Ratio (sweetness): 1.738

CC1(C)[C@H]2CC=C(C=O)[C@@H]1C2 [Myrtenal]
t Ratio (Fructose) [1, 3]: 2.588
t Ratio (Glucose) [1, 4]: 2.455
t Ratio (Sucrose) [1, 5]: −1.323

CCCCCCCCOC(=O)C(C)CC (centres unmarked) [Octyl 2-methyl butyrate]
t Ratio (Fructose) ([1]; in vivo): 0.015
t Ratio (Glucose) ([1]; in vivo): −0.099
t Ratio (Sucrose) ([1]; in vivo): 0.357

C=C(C)C1CC=C(COC(C)=O)CC1 (centres unmarked) [Perillyl acetate]
t Ratio (Fructose) [1, 3]: 0.231
t Ratio (Glucose) [1, 4]: 0.193
t Ratio (Sucrose) [1, 5]: 0.927

c1ccc2scnc2c1 [benzothiazole]
association with flavor intensity (flavor intensity): associated with flavor intensity

CCCCOC(C)=O [butyl acetate]
association with sweetness (perceived sweetness): showed evidence for association with sweetness
association with flavor intensity (flavor intensity): associated with flavor intensity

CC/C=C\CCO [cis-3-hexen-1-ol]
association with sweetness (perceived sweetness): showed evidence for association with sweetness
association with flavor intensity after accounting for fructose (flavor intensity): significant after accounting for fructose
association with flavor intensity (flavor intensity): associated with flavor intensity

CCCCC/C=C\CCC=O [cis-4-decenal]
t (perceived sweetness; tomato volatiles, multiple regression, contribution to sweetness independent of the measures of sugar): 0.582

O=C(O)CC(O)(CC(=O)O)C(=O)O [citric acid]
association with flavor intensity after accounting for fructose (flavor intensity): significant after accounting for fructose
association with flavor intensity (flavor intensity): associated with flavor intensity

C=CCc1ccc(O)c(OC)c1 [eugenol]
association with sweetness (perceived sweetness): showed evidence for association with sweetness

O=C(CO)[C@@H](O)[C@H](O)[C@H](O)CO [fructose]
association with sweetness (perceived sweetness): showed evidence for association with sweetness
association with flavor intensity (flavor intensity): associated with flavor intensity

CC(C)=CCC/C(C)=C/C=O [geranial]
association with sweetness after accounting for fructose (perceived sweetness): significant after accounting for fructose
association with sweetness (perceived sweetness): showed evidence for association with sweetness
association with flavor intensity (flavor intensity): associated with flavor intensity

COc1ccccc1O [guaiacol]
association with sweetness (perceived sweetness): showed evidence for association with sweetness

CCCCCCC=O [heptaldehyde]
association with sweetness (perceived sweetness): showed evidence for association with sweetness

CCCCCCOC(C)=O [hexyl acetate]
relation to sweetness intensity independent of sugars [2]: enhance sweetness intensity

CSCCC=O [methional]
association with sweetness (perceived sweetness): showed evidence for association with sweetness
association with flavor intensity (flavor intensity): associated with flavor intensity

O=CCc1ccccc1 [phenylacetaldehyde]
association with sweetness (perceived sweetness): showed evidence for association with sweetness

CC(=O)OCC=C(C)C [prenyl acetate, 3-methyl-2-buten-1-yl acetate]
relation to sweetness intensity independent of sugars [2]: negatively related to sweetness

CCC(C)OC(C)=O (centres unmarked) [sec-butyl acetate]
association with flavor intensity after accounting for fructose (flavor intensity): significant after accounting for fructose

CCCCC/C=C/C=C/C=O [trans,trans-2,4-decadienal]
association with flavor intensity after accounting for fructose (flavor intensity): significant after accounting for fructose
association with flavor intensity (flavor intensity): associated with flavor intensity

CCCCCCC1CCC(=O)O1 (centres unmarked) [γ-Decalactone]
t Ratio (Fructose) [1, 3]: 1.246
t Ratio (Glucose) [1, 4]: 0.88
t Ratio (Sucrose) [1, 5]: 1.650

Methyl thiolacetate
t Ratio (Fructose) [1, 3]: 0.476
t Ratio (Glucose) [1, 4]: 0.416
t Ratio (Sucrose) [1, 5]: 1.037
